Test results reported in ChEMBL document CHEMBL1158256, “Betulinans A and B, two benzoquinone compounds from Lenzites betulina” (J Nat Prod, 1996).
≈ marks a conversion by molar mass, not a printed value.

System: Liver microsomes
Assay: Inhibition of lipid peroxidation in rat liver microsomes
Format: functional, Microsome

IC50	Compound
0.46 µg/mL (≈ 1.44 µM)	COC1=C(c2ccccc2)C(=O)C(OC)=C(c2ccccc2)C1=O [BETULINAN A]
2.88 µg/mL (≈ 9.05 µM)	COC1=C(c2ccccc2)C(=O)C2=C(C1=O)c1ccccc1CO2 [BETULINAN B]
1.68 µg/mL	VITAMIN E
